US9233106B2, “Inhibition of beta-amyloid peptide aggregation” (CORNELL RESEARCH FOUNDATION, INC., priority 2006, dated 2016)
Entries after “also recorded” stand apart in the source; their conditions may differ.

How the values were obtained:
[1] = target: nicotinic acetylcholine receptor (Mus musculus, UniProt P02716+P04756+P04760+P09690); settings: cited from earlier work
Aβ(1-40) peptide [2] = target: T1, Aβ(1-40) peptide (Homo sapiens, UniProt P05067); assay: Thioflavin T fluorescence assay of Aβ(1-40) peptide aggregation; settings: for effect on Aβ(1-40) peptide aggregation: different concentrations of ligand
Aβ(1-40) peptide [3] = target: T1, Aβ(1-40) peptide; assay: Electrophoretic mobility shift (gel-shift) binding assay with [3H]-cocaine; settings: 7-μM [3H]-cocaine, 125-μM Aβ(1-40), pH 7.4; preliminary results
Description: The gel was cast in a vertical electrophoresis system of dimensions 7×8×0.15 cm and run at 100 V for 2 hr at room temperature. Lane I contains 7-μM [^3H]-cocaine only and Lane II contains 7-μM [^3H]-cocaine and 125-μM Aβ(1-40) peptide. The gel was then phosphor imaged; the contrast of the image was enhanced using ImageJ 1.34, in the process of which the contrast of the band streaks compared to background was lost. The square boxes correspond to the free [^3H]-cocaine trapped in the well; the circle corresponds to the [^3H]-cocaine bound to Aβ(1-40). […] The position of the peptide corresponded to the [^3H]-cocaine bound to Aβ(1-40) (circle) in the phosphorimage in FIG. 3A.
On the other hand, the theoretical isolectric point of the Aβ(1-40) peptide is 5.37 (Wiltfang et al., “Highly Conserved and Disease-Specific Patterns of Carboxyterminally Truncated Aβ Peptides 1-37/38/39 in Addition to 1-40/42 in Alzheimer's Disease and in Patients with Chronic Neuroinflammation,” J. Neurochem. 81:481-496 (2002), which is hereby incorporated by reference in its entirety). […] The imaging plate is then scanned by using a Molecular Dynamics Storm 860 PhosphorImager, and band intensities are quantified by using the IMAGEQUANT software from Molecular Dynamics. […]

[4] = conscious rats; cited from earlier work
cardiovascular functions [5] = settings: anesthetized rats; cited from earlier work
cardiac myocytes = settings: cited from earlier work
cardiovascular functions [6] = settings: squirrel monkeys; cited from earlier work
[7] = target: T2, muscle type nicotinic acetylcholine receptor expressed in BC3H1 cells (Mus musculus, UniProt P02716+P04756+P04760+P09690); assay: Whole-cell current recording, cell-flow technique, carbamoylcholine-induced currents; format: cell-based; settings: 100-μM carbamoylcholine, listed as B55
T2 construct: nicotinic acetylcholine receptors expressed on the surface of BC3H1 cells; endogenous in cells; host or cells: BC3H1 cells
Description: Experiments were conducted at ˜22° C., −60 mV, and pH 7.4. The currents were induced by application of 100-μM carbamoylcholine only (lighter rising and falling line) or by a 2-second preincubation of the cells with 1-μM aptamer B55 followed by coapplication of the aptamer (at the same concentration used in preincubation) with 100-μM carbamoylcholine for 6 s (darker rising and falling line). The upper traces parallel to the abscissa represent the current amplitudes corrected for receptor desensitization that occurs during the rising phase. […] AO is the maximum current amplitude in the presence of 100-μM carbamoylcholine, and AI the maximum current amplitude in the presence of the same concentration of carbamoylcholine and different concentrations of aptamer B55. The whole-cell current was corrected for receptor desensitization. Each data point is the average of 2-4 measurements with at least two cells.
Carbamoylcholine-induced currents were recorded using the whole-cell configuration at room temperature (22-23° C.), pH 7.4, and a transmembrane voltage of −60 mV. The currents were amplified using an Axopatch 200B amplifier (Axon Instruments, Union City, Calif.) and filtered at 1 kHz (using a four-pole low-pass Bessel filter incorporated in the Axopatch 200B amplifier). […]

Aβ(1-40) peptide [8] = target: T1, Aβ(1-40) peptide; settings: Ylera et al. 2002; read-out: Kd(amyloid) for the Aβ(1-40) peptide; cited from earlier work

T1 sequence (P05067 672-711 limits assumed): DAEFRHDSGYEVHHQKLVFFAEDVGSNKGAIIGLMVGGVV
T2 sequence (P04756 21-457): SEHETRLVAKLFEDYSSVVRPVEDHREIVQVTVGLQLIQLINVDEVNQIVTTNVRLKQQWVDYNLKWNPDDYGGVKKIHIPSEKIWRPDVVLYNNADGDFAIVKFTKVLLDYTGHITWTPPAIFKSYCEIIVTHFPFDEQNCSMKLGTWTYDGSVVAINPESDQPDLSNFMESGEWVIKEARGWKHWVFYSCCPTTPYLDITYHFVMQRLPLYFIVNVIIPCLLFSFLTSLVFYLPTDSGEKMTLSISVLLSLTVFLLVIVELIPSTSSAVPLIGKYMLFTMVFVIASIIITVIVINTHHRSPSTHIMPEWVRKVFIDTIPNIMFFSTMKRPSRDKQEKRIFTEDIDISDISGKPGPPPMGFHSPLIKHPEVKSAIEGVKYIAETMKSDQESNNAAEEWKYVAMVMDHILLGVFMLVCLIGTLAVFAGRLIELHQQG
T2 sequence (P09690 24-501): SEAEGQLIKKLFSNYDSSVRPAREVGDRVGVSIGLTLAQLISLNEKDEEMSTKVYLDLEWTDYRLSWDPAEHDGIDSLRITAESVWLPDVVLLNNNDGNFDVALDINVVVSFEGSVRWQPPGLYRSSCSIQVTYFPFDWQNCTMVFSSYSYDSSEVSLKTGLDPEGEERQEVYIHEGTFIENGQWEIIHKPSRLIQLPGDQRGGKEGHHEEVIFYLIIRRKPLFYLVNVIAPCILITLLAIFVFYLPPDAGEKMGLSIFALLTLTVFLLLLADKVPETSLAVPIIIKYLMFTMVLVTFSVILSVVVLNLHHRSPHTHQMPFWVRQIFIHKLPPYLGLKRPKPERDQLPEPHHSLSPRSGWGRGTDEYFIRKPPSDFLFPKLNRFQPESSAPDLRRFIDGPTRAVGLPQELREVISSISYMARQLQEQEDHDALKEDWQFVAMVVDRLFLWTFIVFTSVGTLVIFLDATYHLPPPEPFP
T2 sequence (P04760 23-519): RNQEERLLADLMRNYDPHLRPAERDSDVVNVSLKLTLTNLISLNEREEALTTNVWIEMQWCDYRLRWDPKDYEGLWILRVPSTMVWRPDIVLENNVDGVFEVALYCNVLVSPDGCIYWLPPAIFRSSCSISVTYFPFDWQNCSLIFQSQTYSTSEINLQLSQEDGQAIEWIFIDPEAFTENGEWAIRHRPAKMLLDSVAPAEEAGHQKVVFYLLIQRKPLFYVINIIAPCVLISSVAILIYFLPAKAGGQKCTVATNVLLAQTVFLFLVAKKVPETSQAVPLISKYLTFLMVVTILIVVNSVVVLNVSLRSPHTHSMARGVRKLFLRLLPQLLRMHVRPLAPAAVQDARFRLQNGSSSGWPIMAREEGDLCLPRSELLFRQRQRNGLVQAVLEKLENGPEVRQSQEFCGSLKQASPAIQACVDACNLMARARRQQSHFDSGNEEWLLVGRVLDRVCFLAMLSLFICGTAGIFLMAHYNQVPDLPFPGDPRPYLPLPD
T2 sequence (P02716 25-520): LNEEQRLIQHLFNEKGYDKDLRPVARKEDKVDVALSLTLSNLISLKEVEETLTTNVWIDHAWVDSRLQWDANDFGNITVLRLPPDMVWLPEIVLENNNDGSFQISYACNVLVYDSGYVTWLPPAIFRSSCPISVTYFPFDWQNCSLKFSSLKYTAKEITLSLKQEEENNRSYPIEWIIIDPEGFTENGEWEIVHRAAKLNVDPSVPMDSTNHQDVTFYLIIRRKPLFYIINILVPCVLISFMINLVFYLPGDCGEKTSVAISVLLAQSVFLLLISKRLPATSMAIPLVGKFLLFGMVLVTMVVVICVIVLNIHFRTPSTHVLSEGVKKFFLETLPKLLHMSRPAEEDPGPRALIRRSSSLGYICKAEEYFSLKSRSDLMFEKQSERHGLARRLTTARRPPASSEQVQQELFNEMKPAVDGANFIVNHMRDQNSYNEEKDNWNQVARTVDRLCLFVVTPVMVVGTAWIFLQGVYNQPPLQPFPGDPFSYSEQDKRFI
Sequence of nicotinic acetylcholine receptor (P04756 21-457): as the sequence (P04756 21-457) above
Sequence of nicotinic acetylcholine receptor (P09690 24-501): as the sequence (P09690 24-501) above
Sequence of nicotinic acetylcholine receptor (P04760 23-519): as the sequence (P04760 23-519) above
Sequence of nicotinic acetylcholine receptor (P02716 25-520): as the sequence (P02716 25-520) above

## COC(=O)C1C(OC(C)=O)CC2CCC1N2C (stereo not shown) [reference compound]
[1]
  alleviation of cocaine inhibition of the nicotinic acetylcholine receptor: does not alleviate cocaine inhibition
Aβ(1-40) peptide [2]; 50-μM Aβ(1-40), 37° C., 2 days
  effect on Aβ(1-40) peptide aggregation: does not inhibit aggregation; also recorded: dose-dependent acceleration

## CN1C2CCC1C(C(=O)O)C(O)C2 (stereo not shown) [ecgonine]
Aβ(1-40) peptide [2]; 50-μM Aβ(1-40), 37° C., 2 days
  effect on Aβ(1-40) peptide aggregation: inhibit aggregation of Aβ(1-40) in a dose-dependent manner; also recorded: dose-dependent inhibition

## COC(=O)C1=CC(=O)C2CC(S(=O)(=O)c3ccccc3)C1N2C (stereo not shown) [RCS-III-140A]
Aβ(1-40) peptide [2]; 50-μM Aβ(1-40), 37° C., 2 days
  effect on Aβ(1-40) peptide aggregation: inhibit aggregation

## c1ccc(C2(N3CCCCC3)CCCCC2)cc1 [PCP, phencyclidine, reference compound]
Aβ(1-40) peptide [2]; 1-mM PCP, 50-μM Aβ(1-40), 37° C., 2 days
  effect on Aβ(1-40) peptide aggregation at 1 mM: abrogates Aβ aggregation; also recorded: abolished amyloid aggregation

## CN1C2CC(S(=O)(=O)c3ccccc3)C1C(C(=O)[O-])=CC2=O.[Li+] (stereo not shown) [RCS-III-143]
Aβ(1-40) peptide [2]; 50-μM Aβ(1-40), 37° C., 2 days
  effect on Aβ(1-40) peptide aggregation: inhibit aggregation

## CN1C2CC(S(=O)(=O)c3ccccc3)C1C(C(=O)[O-])=C(c1ccccc1)C2=O.[Li+] (stereo not shown) [RCS-III-218]
Aβ(1-40) peptide [2]; 50-μM Aβ(1-40), 37° C., 2 days
  effect on Aβ(1-40) peptide aggregation: inhibit aggregation

## COC(=O)C1C(OC(=O)c2ccccc2)CC2CCC1N2C (stereo not shown) [cocaine]
Aβ(1-40) peptide [2]; 50-μM Aβ(1-40), 37° C., 2 days
  effect on Aβ(1-40) peptide aggregation: dose-dependent inhibition
Aβ(1-40) peptide [3]
  binding of cocaine to the Aβ(1-40) peptide: binds; also recorded: direct binding

## UUCACCG ((i.e., UUCACCG); as printed in the source, key not given here)
Aβ(1-40) peptide [2]; 500-μM oligonucleotide, 50-μM Aβ(1-40), 37° C., 2 days
  effect on Aβ(1-40) peptide aggregation at 500 μM: abolished amyloid aggregation

## COC(=O)C1=C(c2ccccc2)C(=O)C2CC(S(=O)(=O)c3ccccc3)C1N2C (stereo not shown) [RCS-III-202A]
Aβ(1-40) peptide [2]; 50-μM Aβ(1-40), 37° C., 2 days
  effect on Aβ(1-40) peptide aggregation: inhibit aggregation

## COC(=O)C1C(O)CC2CCC1N2C (stereo not shown)
[4]
  brain tissue concentration corresponding to the lowest toxic daily dose: 478.43±57.89
Cardiovascular functions [5]
  dose with no effect on cardiovascular functions in vivo, i.v. infusion: up to 1.5 mg/kg/min
Aβ(1-40) peptide [2]; 50-μM Aβ(1-40), 37° C., 2 days
  effect on Aβ(1-40) peptide aggregation: inhibit aggregation of Aβ(1-40) in a dose-dependent manner; also recorded: dose-dependent inhibition
Aβ(1-40) peptide [2]; order-of-magnitude approximation calculated from FIG. 4A and CSF Aβ(1-40) concentration
  concentration required to abolish the aggregation of Aβ(1-40) in the brain (estimated therapeutic concentration): ~40 ng/g
Cardiac myocytes
  concentration with no effect on cardiovascular functions in vitro: up to 100 μM
Cardiovascular functions [6]
  dose with no effect on cardiovascular functions in vivo, i.v. bolus: up to 10 mg/kg

## CN1C2CCC1C(C(=O)O)C(c1ccc(Cl)cc1)C2 (stereo not shown) [RTI-4229-70]
Aβ(1-40) peptide [2]; 50-μM Aβ(1-40), 37° C., 2 days
  effect on Aβ(1-40) peptide aggregation: dose-dependent inhibition
Aβ(1-40) peptide [2]; 50-μM Aβ(1-40), 37° C., 2 days, listed as RTI 4220-70
  effect on Aβ(1-40) peptide aggregation: inhibit aggregation of Aβ(1-40) in a dose-dependent manner

## C[C@]12N[C@H](Cc3ccccc31)c1ccccc12 [MK-801, dizocilpine, reference compound]
Aβ(1-40) peptide [2]; 50-μM Aβ(1-40), 37° C., 2 days
  effect on Aβ(1-40) peptide aggregation: inhibit aggregation of Aβ(1-40) in a dose-dependent manner; also recorded: dose-dependent inhibition

B1: 5′-UUUACCGUAAGGCCUGUCUUCGUUUGACAGCGGCUUGUUGACCCUCACACUUUGUACCUGCUGCCAA-3′ (nucleic acid)
chain: UUUACCGUAAGGCCUGUCUUCGUUUGACAGCGGCUUGUUGACCCUCACACUUUGUACCUGCUGCCAA
modifications: chemistry not given here
[7]
  inhibition of carbamoylcholine-induced currents from the nicotinic acetylcholine receptor: inhibited carbamoylcholine-induced currents from the nicotinic acetylcholine receptor in a dose-dependent manner; also recorded: inhibition
Aβ(1-40) peptide [8]
  Kd: 29 nM
